Marks after values point to notes of the source that are not given here.

The test system of assay [1] is Ichthyophthirius multifiliis. In words: Survival of channel catfish immunized and challenged with live theronts of I. multifiliis. The class given is in vivo, channel catfish (Ictalurus punctatus). As to conditions: PACAP immersion baths 100 μg/L, 6 baths of 1 hour, versus immunized fish. On the procedure:
An experiment was conducted to evaluate the effect of PACAP administration, after immunization with ciliated parasite theronts I. multifiliis, on survival of channel catfish (I. punctatus). The vaccination and challenge procedure was performed as proposed by Wang and Dickerson ((2002) Clinical and Diagnostic Laboratory Immunology 9 (1), 176-181). Four experimental groups of 25 fish (12±5 g) each one were established:
Group 1: Fish immunized on days 1 and 35 with PBS.
Group 2: Fish immunized on day 1 with 8000 live theronts I. multifiliis and at day 35 with 10,000 living theronts parasite.
Group 3: Fish immunized on day 1 with 8000 live theronts I. multifiliis and at day 35 with 10,000 living theronts parasite. These fish also received by immersion baths the neuropeptide PACAP at a dose of 100 μg of PACAP/L of water. The treatment was performed for 1 hour, on alternate days, in the two weeks prior to challenge (six immersion baths).
Group 4: Fish immunized on day 1 with 8000 live theronts I. multifiliis and at day 35 with 10,000 living theronts parasite. These fish were also subjected to immersion baths for 1 hour without PACA, by a procedure similar to Group 3.
Prior to the immunizations fish were treated with formalin to remove existing ectoparasites. The fish were maintained at 23±2° C. and continuous water flow. At day 84, the fish were challenged with 15 000 theronts. […]

In assay [2] the test system is IL 1β. Briefly: IL 1β transcription in head kidney leukocytes, real time PCR. The class given is cell-based, rainbow trout (Oncorhynchus mykiss). As to conditions: 10^−10, 10^−9, 10^−8 M tested, 48 h. The protocol:
(§1) FIG. 4. Expression analysis by real time PCR of the in vitro effect of PACAP38 over the transcription of IL 1β in peripheral blood leukocytes (A) and head kidney (B) of naïve rainbow trout. The effects of PACAP administration at a concentration of 10^−10 M, 10^−9 M and 10^−8 M was evaluated at 48 h post-treatment. The experiment was repeated 4 times. The leukocyte cultures were treated in duplicates and the PCRs were performed in triplicate. Data are expressed as mean of relative expression of IL 1β related to the endogenous elongation factor EF1α±standard deviation (SD).
(§2) We used juvenile rainbow trout (O. mykiss) of approximately 50 g, free of the VHSV and IPNV. Fish (n=5) were anesthetized with methanesulfonic acid salt (Sigma, USA) and peripheral blood from the tail vein was taken aseptically of each fish and then the head kidney was collected. […]
(§3) The levels of IL 1β and IL 15 were evaluated 48 hours after treatment. […]
(§4) For cDNA synthesis was used a commercial kit that use the SuperScript III reverse transcriptase (Invitrogen). Finally, for quantitative PCRs (qPCRs) was used a commercial mixture of PCR: Power SYBR Green PCR Master Mix (Applied Biosystems). […] The results were expressed as 2^−ΔCt, where ΔCt is equal to the remainder of the Ct value of the target gene minus the Ct value of the normalized gene EF 1α.

Assay [3] relates to IL 1β. Briefly: IL 1β transcription in peripheral blood leukocytes, real time PCR. The class given is cell-based, rainbow trout (Oncorhynchus mykiss). The protocol:
as §1, §2, §3, §4

For assay [4], the system named is IL 15. In words: IL 15 expression in head kidney leukocytes, real time PCR. As to conditions: 10^−9 M, 48 h, vs negative control. The class given is cell-based, rainbow trout (Oncorhynchus mykiss). On the procedure:
(§5) FIG. 5. Expression analysis by real time PCR of the in vitro effect of PACAP38 over the transcription of IL 15 in peripheral blood leukocytes (A) and head kidney (B) of neïve rainbow trout. The effects of PACAP administration at a concentration of 10^−10 M, 10^−9 M and 10^−8 M was evaluated at 48 h post-treatment. The experiment was repeated 4 times. The leukocyte cultures were treated in duplicates and the PCRs were performed in triplicates. Data are expressed as the mean of the relative expression of IL 15 related to the endogenous elongation factor EF1α±standard deviation (SD). (*) p<0.05.
as §2, §3, §4

Assay [5] relates to IL 15. In words: IL 15 expression in peripheral blood leukocytes, real time PCR. The assay is classed as cell-based, rainbow trout (Oncorhynchus mykiss). On the procedure: as §5, §2, §3, §4
The test system of another assay is Caligus rogercresseyi. In words: Controlled challenge test with Caligus rogercresseyi in immunized Salmo salar.

Method for Caligus rogercresseyi: In this experiment were established six experimental groups of 25 animals (average weight 80 g) each one:
Group 1: Injected IP with PBS
Group 2: Injected IP with PACAP38 at the dose of 1 μg/fish
Group 3: Injected IP with my32 at the dose of 3 μg/g of body weight (gbw)
Group 4: Co-administration by IP injection of my32 at 3 μg/gbw and PACAP at the dose of 1 μg/fish
Group 5: Fish injected IP with my32 at the dose of 3 μg/gbw and fed with 250 μg of PACAP/Kg of feed daily, for one week before and after de immunization with my32.
After 500 arbitrary thermal units, fish were adapted to seawater for two weeks. Subsequently, they were challenged with 2000±200 copepodites to each tank. […] Turnover and filtration was performed manually every 48 hours. At 24 days, fish were anesthetized and killed for parasite counting under a stereomicroscope.

With PACAP38, in assay [1], the “increase in survival of immunized fish simultaneously treated with PACAP” value stood at 27%. For the same substance, in the assay with IL 1β [2], the “IL1β transcription (relative expression to EF1α)” value was “stimulatory effect only at a dose of 10^−9 M”. Moreover, in the assay on IL 1β [3] (10^−9 M, 48 h, vs negative control, below the 10^−10 M level), the “transcription of IL 1β (relative expression to EF1α)” value is reported as “stimulatory effect”. Besides, the “IL 1β levels (relative expression to EF1α)” value in the assay on IL 1β [3] (10^−10 M, 48 hours) is recorded as “increased”. In addition, the “IL 15 expression levels (relative to EF1α)” value in the assay on IL 15 [4] was “statistically higher than the negative control group”. The “expression of the IL 15 (relative to EF1α)” value in the assay with IL 15 [5] (10^−9 M, 48 h) is “stimulatory effect”; in the assay on IL 15 [5] (10^−10 M, 48 h (highest values)), “stimulatory effect”. In addition, in the assay with Caligus rogercresseyi (24 days post-challenge, (1 − T/C) × 100 versus placebo group), the “Inhibition of the infestation (%)” value is 22%. Besides, the Number of parasites/fish in the assay on Caligus rogercresseyi (S. salar, 24 days post-challenge with C. rogercresseyi, PACAP 1 μg/fish IP or 250 μg/Kg feed, my32 3 μg/gbw IP) was 29 ± 5^b.

The record behind these values is patent publication US9549977B2 (priority 2011, dated 2017).
